Results published in patent US9265253B2, “Use of macrocyclic picolinamides as fungicides” (DOW AGROSCIENCES LLC, priority 2013, dated 2016).
Where two headings read alike, the source gives them in different places.

Experiments:
Assay type in all cases: in vivo
[1] = system: Mycosphaerella graminicola; Anamorph: Septoria tritici; test: Leaf Blotch of Wheat (SEPTTR) disease control; details: Zymoseptoria tritici; for pest or weed control at 100 ppm: rate 100 ppm; for pest or weed control at 121.5 g/ha: rate 121.5 g/H
In short: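 Wheat seedlings (Yuma, first leaf emerged) sprayed to run-off with compound in acetone/water with 110 ppm Triton X-100, or track-sprayed as EC with 0.1% Trycol 5941. Septoria tritici spores inoculated before or after treatment. Dew chambers, then 20 °C greenhouse. Percent disease control derived from severity (0–100%) relative to untreated plants.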

[2] = system: Puccinia triticina; Synonym: Puccinia recondite f. Sp. Tritici; test: Wheat Brown Rust (PUCCRT) disease control; details: Puccinia triticina, topical; for pest or weed control at 100 ppm: rate 100 ppm; for pest or weed control at 121.5 g/ha: rate 121.5 g/H
In short: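 Brown rust on first-leaf Yuma wheat: spore inoculation before or after spray application (acetone/Triton X-100 solution, or EC with Trycol in track spray), overnight 100% RH at 22 °C, disease developed at 24 °C. Severity scored 0–100% and converted to percent control against untreated.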

Uncinula necator = test: Grape Powdery Mildew (UNCINE) disease control; details: Erysiphe necator, topical, 24 h, 1 Day Protectant, read-out: Disease Control UNCINE 1 DP
In short: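 Month-old Carignane grape seedlings were sprayed to run-off with compound in acetone diluted 1:9 in water containing 110 ppm Triton X-100, then inoculated 24 h later by shaking spores from infected leaves. Plants were held in a greenhouse at 20 °C until disease developed, and severity (0–100%) was scored with control calculated relative to untreated plants.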

Phakopsora pachyrhizi = test: Asian Soybean Rust (PHAKPA) disease control; details: Phakopsora pachyrhizi, topical
In short: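 Compounds in acetone diluted with nine volumes water containing 0.011% Tween 20, sprayed to run-off on two-week-old Williams 82 soybean seedlings, inoculated 3 days before or 1 day after treatment. Plants held 24 h in dark dew room at 22 °C, 100% RH, then at 23 °C; disease severity scored on sprayed leaves.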

[3] = 24 h, 1 Day Protectant, read-out: SEPTTR 1 DP disease control
[4] = 72 h, 3 Day Curative, read-out: SEPTTR 3 DC disease control
[5] = 24 h, 1 Day Protectant, read-out: PUCCRT 1 DP disease control
[6] = 72 h, 3 Day Curative, read-out: PUCCRT 3 DC disease control
[7] = 24 h, 1 Day Protectant, read-out: Disease Control PHAKPA 1DP
[8] = 72 h, 3 Day Curative, read-out: Disease Control PHAKPA 3DC

COc1ccnc(C(=O)N[C@H]2CCC[C@H](Cc3ccccc3)[C@@H](OCC3CC3)[C@H](C)OC2=O)c1OCOC(=O)C(C)C [Compound F152] showed a pest or weed control at 100 ppm [1, 3] of 80 to 100%, a pest or weed control at 121.5 g/ha [1, 3] of 80 to 100% and a pest or weed control at 100 ppm [1, 4] of 80 to 100%. For the same molecule, the pest or weed control at 121.5 g/ha [1, 4] was 80 to 100%, the pest or weed control at 100 ppm [2, 5] was 80 to 100% and the pest or weed control at 121.5 g/ha [2, 5] was 80 to 100%. For the same molecule, the pest or weed control at 100 ppm [2, 6] was 80 to 100%, the pest or weed control at 121.5 g/ha [2, 6] was 80 to 100% and the pest or weed control at 100 ppm (Uncinula necator) was 0 to 80%. For the same molecule, the pest or weed control at 25 ppm (Phakopsora pachyrhizi; [7]) was 80 to 100% and the pest or weed control at 25 ppm (Phakopsora pachyrhizi; [8]) was 80 to 100%.
With COc1ccnc(C(=O)N[C@H]2CCC[C@H](Cc3ccc(F)cc3F)[C@@H](OC(=O)c3ccco3)[C@H](C)OC2=O)c1OCOC(=O)C(C)C [Compound F157] the pest or weed control at 121.5 g/ha [1, 3] was 80 to 100%, the pest or weed control at 121.5 g/ha [2, 5] was 80 to 100% and the pest or weed control at 121.5 g/ha [2, 6] was 0 to 80%. For the same molecule, the pest or weed control at 100 ppm (Uncinula necator) was 80 to 100% and the pest or weed control at 25 ppm (Phakopsora pachyrhizi; [7]) was 0 to 80%.
CCCO[C@@H]1[C@@H](CCC(C)C)CCC[C@H](NC(=O)c2nccc(OC)c2OCOC(=O)COCC)C(=O)O[C@H]1C [Compound F161] showed a pest or weed control at 100 ppm [1, 3] of 80 to 100%, a pest or weed control at 121.5 g/ha [1, 3] of 80 to 100% and a pest or weed control at 100 ppm [1, 4] of 80 to 100%. It also gave a pest or weed control at 121.5 g/ha [1, 4] of 80 to 100%, a pest or weed control at 100 ppm [2, 5] of 80 to 100% and a pest or weed control at 121.5 g/ha [2, 5] of 80 to 100%. The pest or weed control at 100 ppm [2, 6] was 80 to 100%, the pest or weed control at 121.5 g/ha [2, 6] was 80 to 100% and the pest or weed control at 100 ppm (Uncinula necator) was 80 to 100%. The pest or weed control at 25 ppm (Phakopsora pachyrhizi; [7]) was 80 to 100% and the pest or weed control at 25 ppm (Phakopsora pachyrhizi; [8]) was 80 to 100%.
CCOCC(=O)OCOc1c(OC)ccnc1C(=O)N[C@H]1CCC[C@H](Cc2ccc(F)cc2)[C@@H](OCC2CC2)[C@H](C)OC1=O [Compound F164] gave a pest or weed control at 100 ppm [1, 3] of 80 to 100%, a pest or weed control at 121.5 g/ha [1, 3] of 80 to 100% and a pest or weed control at 100 ppm [1, 4] of 80 to 100%. It also gave a pest or weed control at 121.5 g/ha [1, 4] of 80 to 100%, a pest or weed control at 100 ppm [2, 5] of 80 to 100% and a pest or weed control at 121.5 g/ha [2, 5] of 80 to 100%. It also gave a pest or weed control at 100 ppm [2, 6] of 80 to 100%, a pest or weed control at 121.5 g/ha [2, 6] of 0 to 80% and a pest or weed control at 100 ppm (Uncinula necator) of 80 to 100%. For the same molecule, the pest or weed control at 25 ppm (Phakopsora pachyrhizi; [7]) was 80 to 100% and the pest or weed control at 25 ppm (Phakopsora pachyrhizi; [8]) was 0 to 80%.
Work on CCCO[C@@H]1[C@@H](Cc2ccc(F)cc2)CCC[C@H](NC(=O)c2nccc(OC)c2OCOC(=O)COCC)C(=O)O[C@H]1C [Compound F167] yielded a pest or weed control at 100 ppm [1, 3] of 80 to 100%, a pest or weed control at 121.5 g/ha [1, 3] of 80 to 100% and a pest or weed control at 100 ppm [1, 4] of 80 to 100%. For the same molecule, the pest or weed control at 121.5 g/ha [1, 4] was 80 to 100%, the pest or weed control at 100 ppm [2, 5] was 80 to 100% and the pest or weed control at 121.5 g/ha [2, 5] was 80 to 100%. For the same molecule, the pest or weed control at 100 ppm [2, 6] was 80 to 100%, the pest or weed control at 121.5 g/ha [2, 6] was 80 to 100% and the pest or weed control at 100 ppm (Uncinula necator) was 80 to 100%. It also gave a pest or weed control at 25 ppm (Phakopsora pachyrhizi; [7]) of 80 to 100% and a pest or weed control at 25 ppm (Phakopsora pachyrhizi; [8]) of 0 to 80%.
Molecule CCOCC(=O)OCOc1c(OC)ccnc1C(=O)N[C@H]1CCC[C@H](Cc2ccc(F)cc2)[C@@H](OCC(C)C)[C@H](C)OC1=O [Compound F168] has a pest or weed control at 100 ppm [1, 3] of 80 to 100%, a pest or weed control at 121.5 g/ha [1, 3] of 80 to 100% and a pest or weed control at 100 ppm [1, 4] of 80 to 100%. The pest or weed control at 121.5 g/ha [1, 4] was 80 to 100%, the pest or weed control at 100 ppm [2, 5] was 80 to 100% and the pest or weed control at 121.5 g/ha [2, 5] was 80 to 100%. For the same molecule, the pest or weed control at 100 ppm [2, 6] was 80 to 100%, the pest or weed control at 121.5 g/ha [2, 6] was 80 to 100% and the pest or weed control at 100 ppm (Uncinula necator) was 80 to 100%. For the same molecule, the pest or weed control at 25 ppm (Phakopsora pachyrhizi; [7]) was 80 to 100% and the pest or weed control at 25 ppm (Phakopsora pachyrhizi; [8]) was 0 to 80%.
CCOCC(=O)OCOc1c(OC)ccnc1C(=O)N[C@H]1CCC[C@H](Cc2ccccc2)[C@@H](OCC(C)C)[C@H](C)OC1=O [Compound F172] gave a pest or weed control at 100 ppm [1, 3] of 80 to 100%, a pest or weed control at 121.5 g/ha [1, 3] of 80 to 100% and a pest or weed control at 100 ppm [1, 4] of 80 to 100%. It also gave a pest or weed control at 121.5 g/ha [1, 4] of 80 to 100%, a pest or weed control at 100 ppm [2, 5] of 80 to 100% and a pest or weed control at 121.5 g/ha [2, 5] of 80 to 100%. The pest or weed control at 100 ppm [2, 6] was 80 to 100%, the pest or weed control at 121.5 g/ha [2, 6] was 80 to 100% and the pest or weed control at 100 ppm (Uncinula necator) was 0 to 80%. The pest or weed control at 25 ppm (Phakopsora pachyrhizi; [7]) was 80 to 100% and the pest or weed control at 25 ppm (Phakopsora pachyrhizi; [8]) was 0 to 80%.
